pEC50: −log10 of the molar value.
The compounds below were run against T1, CXCR7 (Homo sapiens, UniProt P25106) (assay: PathHunter CHO-K1 CXCR7 b-arrestin recruitment assay (CXCR7 agonistic activity)). Details: PathHunter CHO-K1 CXCR7 b-arrestin cell line.
T1 construct: host or cells: CHO-K1 (PathHunter CHO-K1 CXCR7 b-arrestin cell line, stably transfected)
Format: cell-based
In short: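 Stable CHO-K1 line with C-terminally ProLink-tagged CXCR7 and β-arrestin 2–EA fusion; β-arrestin recruitment restores β-gal activity, read by chemiluminescence after 1 h RT detection. Cells seeded 24 h, starved in OPTIMEM 3–4 h, exposed to compounds 90 min at 37 °C in HBSS/HEPES/BSA. Geometric-mean EC50 from repeated measurements.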

T1 sequence (P25106 whole entry): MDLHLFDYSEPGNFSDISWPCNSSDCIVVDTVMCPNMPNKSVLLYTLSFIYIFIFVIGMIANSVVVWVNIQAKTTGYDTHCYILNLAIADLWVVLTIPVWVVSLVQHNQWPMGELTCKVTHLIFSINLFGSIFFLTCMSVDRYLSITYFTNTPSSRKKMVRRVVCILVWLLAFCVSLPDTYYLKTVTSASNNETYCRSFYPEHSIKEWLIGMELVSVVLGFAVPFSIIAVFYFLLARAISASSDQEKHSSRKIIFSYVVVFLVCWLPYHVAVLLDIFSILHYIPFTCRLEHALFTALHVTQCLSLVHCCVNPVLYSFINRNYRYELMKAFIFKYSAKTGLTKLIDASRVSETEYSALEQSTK
T1 sequence (P32121 whole entry partner): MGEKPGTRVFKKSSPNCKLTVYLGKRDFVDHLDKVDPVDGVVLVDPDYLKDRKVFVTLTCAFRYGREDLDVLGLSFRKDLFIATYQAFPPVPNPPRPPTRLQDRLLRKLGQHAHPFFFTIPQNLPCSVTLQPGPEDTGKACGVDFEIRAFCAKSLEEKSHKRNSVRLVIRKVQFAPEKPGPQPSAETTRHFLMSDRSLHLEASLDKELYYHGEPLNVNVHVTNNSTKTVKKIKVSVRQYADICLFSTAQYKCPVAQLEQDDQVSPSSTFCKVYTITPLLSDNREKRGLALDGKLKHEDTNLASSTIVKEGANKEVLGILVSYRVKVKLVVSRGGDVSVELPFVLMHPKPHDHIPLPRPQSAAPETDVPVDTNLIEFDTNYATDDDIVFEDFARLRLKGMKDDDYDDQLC

pEC50 | SMILES
7.82 | O=C(CNc1cccc2c1CCN(CC1CC1)C2)N(CCN1CCNCC1)Cc1ccccc1C(F)(F)F [compound 438, 2-(2-Cyclopropylmethyl-1,2,3,4-tetrahydro-isoquinolin-5-ylamino)-N-(2-piperazin-1-yl-ethyl)-N-(2-trifluoromethyl-benzyl)-acetamide]
8.52 | CCNCCN(Cc1ccccc1C(F)(F)F)C(=O)CNc1cccc2c1CCN(CC1CC1)C2 [compound 439, 2-(2-Cyclopropylmethyl-1,2,3,4-tetrahydro-isoquinolin-5-ylamino)-N-(2-ethylamino-ethyl)-N-(2-trifluoromethyl-benzyl)-acetamide]
7.82 | O=C(CNc1cccc2c1CCN(CC1CC1)C2)N(Cc1ccccc1C(F)(F)F)C1CCNCC1 [compound 440, 2-(2-Cyclopropylmethyl-1,2,3,4-tetrahydro-isoquinolin-5-ylamino)-N-piperidin-4-yl-N-(2-trifluoromethyl-benzyl)-acetamide]
8.00 | NCCN(Cc1ccccc1C(F)(F)F)C(=O)CNc1cccc2c1CCN(CC1CC1)C2 [compound 442, N-(2-Amino-ethyl)-2-(2-cyclopropylmethyl-1,2,3,4-tetrahydro-isoquinolin-5-ylamino)-N-(2-trifluoromethyl-benzyl)-acetamide]
7.82 | CCN1CCc2cccc(NCC(=O)N(CCNC)Cc3ccccc3C(F)(F)F)c2C1 [compound 444, 2-(2-Ethyl-1,2,3,4-tetrahydro-isoquinolin-8-ylamino)-N-(2-methylamino-ethyl)-N-(2-trifluoromethyl-benzyl)-acetamide]
9.00 | CC(C)N(C)CCN(Cc1ccccc1C(F)(F)F)C(=O)CNc1cccc2c1CCN(CC1CC1)C2 [compound 449, 2-(2-Cyclopropylmethyl-1,2,3,4-tetrahydro-isoquinolin-5-ylamino)-N-[2-(isopropyl-methyl-amino)-ethyl]-N-(2-trifluoromethyl-benzyl)-acetamide]
9.00 | CN(CCN(Cc1ccccc1C(F)(F)F)C(=O)CNc1cccc2c1CCN(CC1CC1)C2)CC1CC1 [compound 450, N-[2-(Cyclopropylmethyl-methyl-amino)-ethyl]-2-(2-cyclopropylmethyl-1,2,3,4-tetrahydro-isoquinolin-5-ylamino)-N-(2-trifluoromethyl-benzyl)-acetamide]
9.00 | CN(CCN(Cc1ccccc1C(F)(F)F)C(=O)CNc1cccc2c1CCN(CC1CC1)C2)C1CCCC1 [compound 451, N-[2-(Cyclopentyl-methyl-amino)-ethyl]-2-(2-cyclopropylmethyl-1,2,3,4-tetrahydro-isoquinolin-5-ylamino)-N-(2-trifluoromethyl-benzyl)-acetamide]
8.22 | CCN(CCN(Cc1ccccc1C(F)(F)F)C(=O)CNc1cccc2c1CCN(CC1CC1)C2)CC1(C)COC1 [compound 453]
8.52 | CN(C)CCN(Cc1ccccc1C(F)(F)F)C(=O)CCc1cccc2c1CN(CC1CC1)CC2 [compound 454, 3-(2-Cyclopropylmethyl-1,2,3,4-tetrahydro-isoquinolin-8-yl)-N-(2-dimethylamino-ethyl)-N-(2-trifluoromethyl-benzyl)-propionamide]
7.41 | C=CCN1CCc2cccc(NCC(=O)N(CCN(C)CCF)Cc3ccccc3C(F)(F)F)c2C1 [compound 465, 2-(2-Allyl-1,2,3,4-tetrahydro-isoquinolin-8-ylamino)-N-{2-[(2-fluoro-ethyl)-methyl-amino]-ethyl}-N-(2-trifluoromethyl-benzyl)-acetamide]
7.89 | C=CCN1CCc2cccc(NCC(=O)N(CCN(C)C)Cc3ccccc3C(F)(F)F)c2C1 [compound 466, 2-(2-Allyl-1,2,3,4-tetrahydro-isoquinolin-8-ylamino)-N-(2-dimethylamino-ethyl)-N-(2-trifluoromethyl-benzyl)-acetamide]
7.68 | CN(C)CCN(Cc1cccc(OC(F)(F)F)c1)C(=O)CNc1cccc2c1CN(CC1CC1)CC2 [compound 471, 2-(2-Cyclopropylmethyl-1,2,3,4-tetrahydro-isoquinolin-8-ylamino)-N-(2-dimethylamino-ethyl)-N-(3-trifluoromethoxy-benzyl)-acetamide]
7.68 | CN(C)CCN(Cc1ccccc1OC(F)(F)F)C(=O)CNc1cccc2c1CN(CC1CC1)CC2 [compound 472, 2-(2-Cyclopropylmethyl-1,2,3,4-tetrahydro-isoquinolin-8-ylamino)-N-(2-dimethylamino-ethyl)-N-(2-trifluoromethoxy-benzyl)-acetamide]
7.33 | O=C(CNc1cccc2c1CN(CC1CC1)CC2)N(CCN1CCC(F)(F)CC1)Cc1ccccc1C(F)(F)F [compound 474, 2-(2-Cyclopropylmethyl-1,2,3,4-tetrahydro-isoquinolin-8-ylamino)-N-[2-(4,4-difluoro-piperidin-1-yl)-ethyl]-N-(2-trifluoromethyl-benzyl)-acetamide]
7.20 | CN(CCN(Cc1ncccc1C(F)(F)F)C(=O)CNc1cccc2c1CN(CC1CC1)CC2)CC(F)(F)F [compound 477]
7.04 | O=C(CNc1cccc2c1CN(CC1CC1)CC2)N(CCN1CCCC(F)(F)C1)Cc1ccccc1C(F)(F)F [compound 478]
7.11 | O=C(CNc1cccc2c1CN(CC1CC1)CC2)N(CCN1CCC(F)(F)C1)Cc1ccccc1C(F)(F)F [compound 479]
7.55 | O=C(CNc1cccc2c1CN(CC1CC1)CC2)N(CCN1CCCC(F)(F)C1)Cc1ncccc1C(F)(F)F [compound 480, 2-(2-Cyclopropylmethyl-1,2,3,4-tetrahydro-isoquinolin-8-ylamino)-N-[2-(3,3-difluoro-piperidin-1-yl)-ethyl]-N-(3-trifluoromethyl-pyridin-2-ylmethyl)-acetamide]
7.39 | O=C(CNc1cccc2c1CN(CC1CC1)CC2)N(CCN1CCC(F)(F)C1)Cc1ncccc1C(F)(F)F [compound 481, 2-(2-Cyclopropylmethyl-1,2,3,4-tetrahydro-isoquinolin-8-ylamino)-N-[2-(3,3-difluoro-pyrrolidin-1-yl)-ethyl]-N-(3-trifluoromethyl-pyridin-2-ylmethyl)-acetamide]

Continued, compound first:

SMILES | pEC50
CNCCN(Cc1ncccc1Cl)C(=O)CNc1cccc2c1CCN(CC1CC1)C2 [compound 436, N-(3-Chloro-pyridin-2-ylmethyl)-2-(2-cyclopropylmethyl-1,2,3,4-tetrahydro-isoquinolin-5-ylamino)-N-(2-methylamino-ethyl)-acetamide] | 8.05
CNCCN(Cc1ncccc1C(F)(F)F)C(=O)CNc1cccc2c1CCN(CC1CC1)C2 [compound 437, 2-(2-Cyclopropylmethyl-1,2,3,4-tetrahydro-isoquinolin-5-ylamino)-N-(2-methylamino-ethyl)-N-(3-trifluoromethyl-pyridin-2-ylmethyl)-acetamide] | 8.30
CCN1CCc2cccc(NCC(=O)N(CCNC)Cc3ccccc3)c2C1 [compound 443] | 6.83
CNCCN(Cc1ccccc1C(F)(F)F)C(=O)CNc1cccc2c1CCN(C(C)=O)C2 [compound 445, 2-(2-Acetyl-1,2,3,4-tetrahydro-isoquinolin-5-ylamino)-N-(2-methylamino-ethyl)-N-(2-trifluoromethyl-benzyl)-acetamide] | 7.96
CNCCN(Cc1ccccc1Cl)C(=O)CNc1cccc2c1CCN(CC1CC1)C2 [compound 446, N-(2-Chloro-benzyl)-2-(2-cyclopropylmethyl-1,2,3,4-tetrahydro-isoquinolin-5-ylamino)-N-(2-methylamino-ethyl)-acetamide] | 8.40
CN(C)CCN(Cc1ncccc1Cl)C(=O)CNc1cccc2c1CN(C1CCC1)CC2 [compound 455, N-(3-Chloro-pyridin-2-ylmethyl)-2-(2-cyclobutyl-1,2,3,4-tetrahydro-isoquinolin-8-ylamino)-N-(2-dimethylamino-ethyl)-acetamide] | 8.00
CN(C)CCN(Cc1ncccc1Br)C(=O)CNc1cccc2c1CN(C1CCC1)CC2 [compound 456, N-(3-Bromo-pyridin-2-ylmethyl)-2-(2-cyclobutyl-1,2,3,4-tetrahydro-isoquinolin-8-ylamino)-N-(2-dimethylamino-ethyl)-acetamide] | 8.10
CC(C)(O)CN(Cc1ncccc1Cl)C(=O)CNc1cccc2c1CN(C1CCC1)CC2 [compound 457] | 6.63
CC(C)(O)CN(Cc1ncccc1Br)C(=O)CNc1cccc2c1CN(C1CCC1)CC2 [compound 458] | 6.96
C=CCN(C)CCN(Cc1ccccc1C(F)(F)F)C(=O)CNc1cccc2c1CN(CC=C)CC2 [compound 463, N-[2-(Allyl-methyl-amino)-ethyl]-2-(2-allyl-1,2,3,4-tetrahydro-isoquinolin-8-ylamino)-N-(2-trifluoromethyl-benzyl)-acetamide] | 7.80
C=CCN1CCc2cccc(NCC(=O)N(CCN(C)C)Cc3ccccc3OC(F)(F)F)c2C1 [compound 464, 2-(2-Allyl-1,2,3,4-tetrahydro-isoquinolin-8-ylamino)-N-(2-dimethylamino-ethyl)-N-(2-trifluoromethoxy-benzyl)-acetamide] | 7.44
C=CCN(C)CCN(Cc1ccccc1C(F)(F)F)C(=O)CCc1cccc2c1CN(CC=C)CC2 [compound 467, N-[2-(Allyl-methyl-amino)-ethyl]-3-(2-allyl-1,2,3,4-tetrahydro-isoquinolin-8-yl)-N-(2-trifluoromethyl-benzyl)-propionamide] | 7.85
C=CCN1CCc2cccc(CCC(=O)N(CCN(C)C)Cc3ccccc3C(F)(F)F)c2C1 [compound 468, 3-(2-Allyl-1,2,3,4-tetrahydro-isoquinolin-8-yl)-N-(2-dimethylamino-ethyl)-N-(2-trifluoromethyl-benzyl)-propionamide] | 8.00
CN(C)CCN(Cc1ccc(OC(F)(F)F)cc1)C(=O)CNc1cccc2c1CN(CC1CC1)CC2 [compound 473] | 6.99
CN(C)CCN(Cc1ccccc1C(F)(F)F)C(=O)CNc1cccc2c1CN(CC1CC1)CC2 [compound 475] | 6.92
O=C(CNc1cccc2c1CN(CC1CC1)CC2)N(CCN1CCC(F)(F)CC1)Cc1ncccc1C(F)(F)F [compound 476] | 7.82
